From paper PMC10307939 (Pharmacology Research & Perspectives, 2023) come the findings set out here.

“Also recorded” adds a separate entry of the source. Counter-ions that a name gives are not always drawn.

The target of experiment [1] is T1, human delta‐opioid receptor (Homo sapiens, UniProt P41143). Briefly: Radioligand competition binding, hDOR‐CHO membranes. The note with it: for MOR/DOR (fold selectivity for MOR over DOR): K i at DOR divided by K i at MOR.
Experiment [2] concerns the target T2, mouse mu‐opioid receptor (Mus musculus, UniProt P42866). Briefly: Ligand‐stimulated [35S]GTPγS binding, mMOR‐CHO membranes. Format: biochemical. The note with it: for Emax: read-out: MOR E max. A general note: GTPγS is a poorly hydrolysed GTP analogue; its binding reports G protein activation.
For experiment [3], the target named is T2, mouse mu‐opioid receptor. Briefly: Radioligand competition binding, mMOR‐CHO membranes. The note with it: for Ki: MOR K i, [3H]naloxone, mMOR‐CHO membranes, mean ± SEM (n = 3–6). Background: Displacement assays read how much labelled ligand stays bound in the presence of the test substance.
For experiment [4], the target named is T3, mouse kappa opioid receptor (Mus musculus, UniProt P33534). Briefly: biochemical. The note with it: for Emax: read-out: KOR E max. Format: biochemical.
Experiment [5] has as its system male and female ICR mice. Briefly: Naltrexone antagonism of test‐drug locomotor activation. Format: in vivo, mouse. The conditions noted are these: 1.0 mg/kg naltrexone SC 10 min before test drug.
For experiment [6], the system named is male and female ICR mice. Briefly: Horizontal locomotor activity, 60‐min session. Format: in vivo, mouse. The conditions noted are these: for Emax / ED50: Mus musculus, sc; for Emax: 1 h, read-out: E max (95%CL), % Methadone E max; for ED50: read-out: ED50 (95% CL); for Effect on locomotor activity: SC, drug alone.
Experiment [7] deals with male and female ICR mice. Briefly: Test‐drug antagonism of morphine locomotor activation. Format: in vivo, mouse. The conditions noted are these: test drug SC 10 min before 32 mg/kg SC morphine.
Experiment [8] deals with T1, human delta‐opioid receptor. Briefly: Ligand‐stimulated [35S]GTPγS binding, hDOR‐CHO membranes. The conditions noted are these: for Emax: read-out: DOR E max. Format: biochemical.
For experiment [9], the target named is T3, mouse kappa opioid receptor. Briefly: Radioligand competition binding, mKOR‐CHO membranes. The note with it: for MOR/KOR (fold selectivity for MOR over KOR): K i at KOR divided by K i at MOR.

For the compound `CN1c2ccccc2C(NCCCCCCC(=O)O)c2ccc(Cl)cc2S1(=O)=O` (centres unmarked) [Tianeptine, reference compound], the Ki (as a rule, the dissociation constant of the complex between target and ligand, obtained from inhibition or displacement) in experiment [1] turned out to be 2830 ± 416 nM. Besides, in [2], the concentration for a half-maximal effect (EC50) (in general, the concentration that produces a half-maximal response) was 6440 ± 622 nM and the Emax stood at 110 ± 3.6%. In experiment [3], the affinity, expressed as Ki, was 78.2 ± 9.93 nM. In [4], the “KOR E max” value is reported as “No stim”. Also, the “Effect of naltrexone pretreatment on locomotor‐activating dose of test drug” value (from here on “Effect of naltrexone pretreatment”) in experiment [5] was “significantly attenuated”.
As to `CCC[C@H]1[C@@H]2CCC[C@@]1(c1cccc(O)c1)CCN2CCc1ccccc1` [EG‐1‐203, 3‐((1S,5R,9R)‐2‐phenethyl‐9‐propyl‐2‐azabicyclo[3.3.1]nonan‐5‐yl)phenol], the inhibitory constant (Ki) in experiment [1] is 66.5 ± 7.7 nM; in experiment [3], 0.761 ± 0.031 nM; in [9], 22.3 ± 4.66 nM. Moreover, the “MOR/DOR (fold selectivity for MOR over DOR)” value in experiment [1] stood at 87.4 fold. Further, the EC50 in [2] is 24.2 ± 13.8 nM; in [4], 125 ± 88.7 nM; in experiment [8] it was 37 ± 17.7 nM. Besides, the Emax in experiment [2] was 4.79 ± 0.6%; in experiment [6], 13%; in experiment [4], -3.49 ± 0.67%; in experiment [8] it was -11.6 ± 3.08%. Also, the ED50 (in general, the midpoint of the dose-response relation) in [6] worked out at 5.42 mg/kg. In [7], the “Effect of test‐drug pretreatment on locomotor‐activating effects of morphine” value is reported as “significantly attenuated”. Also, in experiment [9], the “MOR/KOR (fold selectivity for MOR over KOR)” value was found to be 29.3 fold.
Consider `C=C[C@H]1[C@H]2CCC[C@]1(c1cccc(O)c1)CCN2CCc1ccccc1` [DC‐1‐76.2, 3‐((1R,5S,9R)‐2‐phenethyl‐9‐vinyl‐2‐azabicyclo[3.3.1]nonan‐5‐yl)phenol], for which, in experiment [1], the Ki is 347 ± 45.6 nM and the “MOR/DOR (fold selectivity for MOR over DOR)” value turned out to be 698.5 fold. Besides, in experiment [6], the Emax was 87.6% and the ED50 turned out to be 0.47 mg/kg. Also, in experiment [4], the “KOR E max” value was “No stim”. Moreover, in experiment [8], the EC50 turned out to be 160 ± 142 nM and the Emax is -6.34 ± 0.78%. Moreover, in experiment [5], the “Effect of naltrexone pretreatment” value is “significantly attenuated”. In addition, in experiment [9], the Ki was determined as 44 ± 2.98 nM and the “MOR/KOR (fold selectivity for MOR over KOR)” value is 88.5 fold.
In experiment [6] (32 mg/kg SC, 60‐min session), `CCC(=O)C(CC(C)N(C)C)(c1ccccc1)c1ccccc1` (racemic) [Methadone, (±) Methadone HCl, reference compound] gave a Total locomotor counts of 7500.1 counts. Moreover, in experiment [6] (32 mg/kg vs. saline vehicle), the “Mean maximum increase in locomotor counts” value is 5149.8 counts. Further, in experiment [6], the “Effect on locomotor activity” value is listed as “dose‐dependent increase in locomotor activity”.
With `OC/C=C/[C@H]1[C@@H]2CCC[C@@]1(c1cccc(O)c1)CCN2CCc1ccccc1` [EG‐1‐230, 3‐((1S,5R,9R)‐9‐((E)‐3‐hydroxyprop‐1‐en‐1‐yl)‐2‐phenethyl‐2‐azabicyclo[3.3.1]nonan‐5‐yl)phenol], the Ki amounted to 1010 ± 147 nM in experiment [1], 4.22 ± 0.177 nM in experiment [3] and 45.9 ± 7.08 nM in experiment [9]. In experiment [1], the “MOR/DOR (fold selectivity for MOR over DOR)” value is reported as 238.5 fold. Further, the EC50 in [2] is 24.1 ± 12 nM; in experiment [4], 20.7 ± 5.6 nM; in [8], 517 ± 366 nM. For the same compound, the Emax is 0.67 ± 0.79% in [2], 2.2% in experiment [6], -3.97 ± 0.65% in [4] and -10.6 ± 3.58% in [8]. Besides, in [6], the “Effect on locomotor activity” value was “inactive when administered alone”. The “Effect of test‐drug pretreatment on locomotor‐activating effects of morphine” value in experiment [7] is “significantly attenuated”. Moreover, the “MOR/KOR (fold selectivity for MOR over KOR)” value in [9] was found to be 10.9 fold.
Turning to `C/C=C\[C@@H]1[C@H]2CCC[C@]1(c1cccc(O)c1)CCN2CCc1ccccc1` [DC‐1‐128.1, 3‐((1R,5S,9S)‐2‐phenethyl‐9‐((Z)‐prop‐1‐en‐1‐yl)‐2‐azabicyclo [3.3.1]nonan‐5‐yl)phenol], in experiment [1], the Ki turned out to be 318 ± 47 nM and the “MOR/DOR (fold selectivity for MOR over DOR)” value is listed as 565.2 fold. In experiment [6], the Emax is 80.1% and the ED50 is 0.19 mg/kg. For the same compound, the “KOR E max” value in experiment [4] is given as “no KOR activation; also recorded: No stim”. In experiment [8], the EC50 stood at 503 ± 118 nM and the Emax was 31.4 ± 2.23%. The “Fold difference in [35S]GTPγS potency, MOR versus DOR” value in experiment [8] (higher potency at MOR than at DOR) is “more than 60 fold”. Besides, in experiment [5], the “Effect of naltrexone pretreatment” value is “significantly attenuated”. For the same compound, in experiment [9], the Ki amounted to 63.3 ± 7.43 nM and the “MOR/KOR (fold selectivity for MOR over KOR)” value amounted to 112.6 fold.
Regarding `C=C[C@@H]1[C@H]2CCC[C@]1(c1cccc(O)c1)CCN2CCc1ccccc1` [DC‐1‐76.1, 3‐((1R,5S,9S)‐2‐phenethyl‐9‐vinyl‐2‐azabicyclo[3.3.1]nonan‐5‐yl)phenol], in experiment [1], affinity was put at a Ki of 3390 ± 268 nM and the “MOR/DOR (fold selectivity for MOR over DOR)” value was 1773.3 fold. Further, in experiment [6], the Emax was determined as 34.3% and the ED50 was 0.72 mg/kg. Further, the “KOR E max” value in [4] is “No stim”. Also, in [8], the EC50 was determined as 1160 ± 214 nM and the Emax was -0.7 ± 2.12%. The “Effect of naltrexone pretreatment” value in experiment [5] is on record as “significantly attenuated”. In [9], the Ki was 52.9 ± 1.11 nM and the “MOR/KOR (fold selectivity for MOR over KOR)” value amounted to 27.7 fold.
Consider `C/C=C\[C@H]1[C@H]2CCC[C@]1(c1cccc(O)c1)CCN2CCc1ccccc1` [DC‐1‐90.2, 3‐((1R,5S,9R)‐2‐phenethyl‐9‐((Z)‐prop‐1‐en‐1‐yl)‐2‐azabicyclo[3.3.1]nonan‐5‐yl)phenol], for which, in experiment [1], affinity was put at a Ki of 430 ± 41.7 nM and the “MOR/DOR (fold selectivity for MOR over DOR)” value is 235.0 fold. Also, the “KOR E max” value in experiment [4] is “No stim”. Moreover, in experiment [8], it took 253 ± 133 nM to reach a half-maximal effect (EC50) and the Emax was -6.97 ± 0.46%. Further, in [9], the Ki stood at 34.5 ± 0.77 nM and the “MOR/KOR (fold selectivity for MOR over KOR)” value was determined as 18.8 fold.
For the compound `OCC[C@H]1[C@@H]2CCC[C@@]1(c1cccc(O)c1)CCN2CCc1ccccc1` [JL‐2‐39, 3‐((1S,5R,9R)‐9‐(2‐hydroxyethyl)‐2‐phenethyl‐2‐azabicyclo[3.3.1]nonan‐5‐yl)phenol], in [1], the inhibition constant (Ki) was determined as 473 ± 41.2 nM and the “MOR/DOR (fold selectivity for MOR over DOR)” value is listed as 1199.2 fold. In experiment [2], the EC50 stood at 7.09 ± 3.7 nM and the Emax is 13 ± 1.48%. The “Fold more potent than DC‐1‐76.1 in vitro ([35S]GTPɣS binding, MOR CHO cells)” value in experiment [2] (relative to DC‐1‐76.1) is given as ~ 5 fold. Moreover, in experiment [6], the Emax came to 87.1% and the ED50 is 2.85 mg/kg. Also, the “Fold less potent than DC‐1‐76.1 in vivo (locomotor activity)” value in experiment [6] (relative to DC‐1‐76.1) is recorded as ~ 4 fold. The Ki in experiment [3] was found to be 0.394 ± 0.035 nM. The “Fold higher MOR affinity than DC‐1‐76.1” value in [3] (relative to DC‐1‐76.1) is listed as ~ 5 fold. For the same compound, in experiment [4], the “KOR E max” value is “No stim”. In addition, the “Effect of naltrexone pretreatment” value in experiment [5] is “significantly attenuated”. Moreover, in [9], the affinity corresponds to a Ki of 17.1 ± 2.22 nM and the “MOR/KOR (fold selectivity for MOR over KOR)” value amounted to 43.4 fold.
